Values joined by “and” are separate entries in the source; they are usually repeats but may differ in a detail not shown here. Equal entries are not always repeated. Inconclusive results and toxic doses are left out.
Test system: P388 leukemia ip, CD2F1 mice, survival T/C
Assay: NCI In Vivo Anticancer Drug Screen. Data for tumor model P388 Leukemia (intraperitoneal) in CD2F1 (CDF1) mice
Settings: endpoint: median survival time, higher = longer survival
Method in brief: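 Mice carrying the transplanted tumor received test compound or vehicle. Survival was recorded in each group, and the value is the treated-group measurement divided by that of the vehicle-treated control group.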

[1] = dose: 12.5 mg/kg/injection, schedule: Q01DX009 (ip), vehicle: saline with Tween-80
[2] = dose: 25.0 mg/kg/injection, schedule: Q01DX009 (ip), vehicle: saline with Tween-80
[3] = dose: 50.0 mg/kg/injection, schedule: Q01DX009 (ip), vehicle: saline with Tween-80
[4] = dose: 50.0 mg/kg/injection, schedule: Q01DX005 (ip), vehicle: saline
[5] = dose: 100.0 mg/kg/injection, schedule: Q01DX005 (ip), vehicle: saline
[6] = dose: 200.0 mg/kg/injection, schedule: Q01DX005 (ip), vehicle: saline
[7] = dose: 100.0 mg/kg/injection, schedule: Q04DX002 (ip), vehicle: Klucel (hydroxypropylcellulose) (HPC)
[8] = dose: 200.0 mg/kg/injection, schedule: Q04DX002 (ip), vehicle: Klucel (hydroxypropylcellulose) (HPC)

CCN(CC)CCO[C@H]1CC[C@@]2(C)C(=CC[C@@H]3[C@@H]2CC[C@]2(C)C(=O)CC[C@@H]32)C1
T/C (dose: 5.0 mg/kg/injection, schedule: Q01DX009 (ip), vehicle: saline with Tween-80): 104 % of control
T/C (dose: 5.0 mg/kg/injection, schedule: Q04DX003 (ip), vehicle: saline with Tween-80): 91 % of control
T/C (dose: 10.0 mg/kg/injection, schedule: Q01DX009 (ip), vehicle: saline with Tween-80): 91 % of control
T/C (dose: 10.0 mg/kg/injection, schedule: Q04DX003 (ip), vehicle: saline with Tween-80): 91 % of control
T/C (dose: 20.0 mg/kg/injection, schedule: Q01DX009 (ip), vehicle: saline with Tween-80): 95 % of control
T/C (dose: 20.0 mg/kg/injection, schedule: Q04DX003 (ip), vehicle: saline with Tween-80): 100 % of control

S=C(N/N=C1/CCCC/C1=N/NC(=S)N1CCOCC1)N1CCOCC1
T/C (dose: 1.56 mg/kg/injection, schedule: Q01DX005 (ip), vehicle: saline with Tween-80): 101 % of control and 103 % of control
T/C (dose: 3.12 mg/kg/injection, schedule: Q01DX005 (ip), vehicle: saline with Tween-80): 99 % of control and 103 % of control and 104 % of control

COc1cc2c(cc1NC(C)=O)C(=O)CCCC2
T/C (dose: 100.0 mg/kg/injection, schedule: Q01DX009 (ip), vehicle: saline + alcohol): 107 % of control
T/C (dose: 200.0 mg/kg/injection, schedule: Q01DX009 (ip), vehicle: saline + alcohol): 103 % of control
T/C (dose: 400.0 mg/kg/injection, schedule: Q01DX009 (ip), vehicle: saline + alcohol): 110 % of control

CC(C)c1cccc(O)c1O
T/C (dose: 100.0 mg/kg/injection, schedule: Q01DX009 (ip), vehicle: saline): 97 % of control

O=C1CC(C(=O)N2Cc3cc4ccccc4nc3C2)CO1 (stereo unspecified)
T/C (dose: 3.13 mg/kg/injection, schedule: Q01DX009 (ip), vehicle: saline with Tween-80): 100 % of control and 98 % of control
T/C (dose: 6.25 mg/kg/injection, schedule: Q01DX009 (ip), vehicle: saline with Tween-80): 99 % of control and 100 % of control and 115 % of control
T/C [1]: 106 % of control and 124 % of control and 98 % of control
T/C [2]: 100 % of control (2×) and 108 % of control
T/C [3]: 100 % of control

O=C1OCC2OC(=O)c3cc(O)c(O)c(O)c3-c3c(O)c(O)c(O)c4c3C(=O)OC(C2OC(=O)c2cc(O)c(O)c(O)c2-c2c1cc(O)c(O)c2O)C1OC(=O)c2c-4c(O)c(O)c(O)c2C1O (stereo unspecified)
T/C (dose: 1.56 mg/kg/injection, schedule: Q01DX009 (ip), vehicle: saline): 101 % of control
T/C (dose: 3.12 mg/kg/injection, schedule: Q01DX009 (ip), vehicle: saline): 100 % of control
T/C (dose: 6.25 mg/kg/injection, schedule: Q01DX009 (ip), vehicle: saline): 99 % of control and 88 % of control and 100 % of control
T/C (dose: 12.5 mg/kg/injection, schedule: Q01DX009 (ip), vehicle: saline): 100 % of control

N#CC(=N)C(C#N)=Nc1c(O)[nH]c2ccccc12
T/C (dose: 6.25 mg/kg/injection, schedule: Q01DX009 (ip), vehicle: DMSO): 100 % of control
T/C (dose: 12.5 mg/kg/injection, schedule: Q01DX009 (ip), vehicle: DMSO): 94 % of control
T/C (dose: 25.0 mg/kg/injection, schedule: Q01DX009 (ip), vehicle: DMSO): 100 % of control
T/C (dose: 50.0 mg/kg/injection, schedule: Q01DX009 (ip), vehicle: DMSO): 108 % of control

CNC(=O)OCC1(OC(=O)NC)OC(COC(=O)NC)(OC(=O)NC)C(OC(=O)NC)C1OC(=O)NC (stereo unspecified)
T/C [4]: 104 % of control
T/C [5]: 91 % of control
T/C [6]: 101 % of control

Cc1cnc2ncn(Cc3c[nH]c(=O)[nH]c3=O)c(=O)c2c1
T/C (dose: 12.5 mg/kg/injection, schedule: Q01DX001 (ip), vehicle: saline with Tween-80): 110 % of control
T/C (dose: 25.0 mg/kg/injection, schedule: Q01DX001 (ip), vehicle: saline with Tween-80): 107 % of control
T/C (dose: 50.0 mg/kg/injection, schedule: Q01DX001 (ip), vehicle: saline with Tween-80): 104 % of control
T/C (dose: 100.0 mg/kg/injection, schedule: Q01DX001 (ip), vehicle: saline with Tween-80): 104 % of control

Clc1cccc(-c2nc(N3CCOCC3)c3c4c(sc3n2)CCC4)c1
T/C (dose: 60.0 mg/kg/injection, schedule: Q01DX005 (ip), vehicle: Klucel (hydroxypropylcellulose) (HPC)): 101 % of control
T/C (dose: 120.0 mg/kg/injection, schedule: Q01DX005 (ip), vehicle: Klucel (hydroxypropylcellulose) (HPC)): 97 % of control
T/C (dose: 240.0 mg/kg/injection, schedule: Q01DX005 (ip), vehicle: Klucel (hydroxypropylcellulose) (HPC)): 97 % of control

C[C@@H]1CC[C@@]2(OC1)O[C@H]1C[C@H]3[C@@H]4CC=C5C=CCC[C@]5(C)[C@H]4CC[C@]3(C)[C@H]1[C@@H]2C
T/C (dose: 2.25 mg/kg/injection, schedule: Q01DX005 (ip), vehicle: Klucel (hydroxypropylcellulose) (HPC)): 100 % of control
T/C (dose: 4.5 mg/kg/injection, schedule: Q01DX005 (ip), vehicle: Klucel (hydroxypropylcellulose) (HPC)): 100 % of control
T/C (dose: 9.0 mg/kg/injection, schedule: Q01DX005 (ip), vehicle: Klucel (hydroxypropylcellulose) (HPC)): 105 % of control
T/C (dose: 18.0 mg/kg/injection, schedule: Q01DX005 (ip), vehicle: Klucel (hydroxypropylcellulose) (HPC)): 100 % of control
T/C (dose: 36.0 mg/kg/injection, schedule: Q01DX005 (ip), vehicle: Klucel (hydroxypropylcellulose) (HPC)): 98 % of control

O=c1[nH]c(=O)n(C2OC(CO)C(O)C2O)cc1Br (stereo unspecified)
T/C [4]: 97 % of control
T/C [5]: 101 % of control
T/C [6]: 102 % of control

CN1CCc2[nH]c3ccccc3c2C1
T/C [7]: 100 % of control
T/C [8]: 102 % of control

COc1cccc2c1-c1nc(N)c3c(OC)cccc3c1C2=O
T/C [7]: 106 % of control
T/C [8]: 108 % of control
T/C (dose: 400.0 mg/kg/injection, schedule: Q04DX002 (ip), vehicle: Klucel (hydroxypropylcellulose) (HPC)): 107 % of control

Cc1ccc([B-]23OCC[N+]2(CNC(=O)c2ccccc2O)CCO3)cc1 (stereo unspecified)
T/C (dose: 50.0 mg/kg/injection, schedule: Q01DX005 (ip), vehicle: Klucel (hydroxypropylcellulose) (HPC)): 103 % of control
T/C (dose: 100.0 mg/kg/injection, schedule: Q01DX005 (ip), vehicle: Klucel (hydroxypropylcellulose) (HPC)): 108 % of control
T/C (dose: 200.0 mg/kg/injection, schedule: Q01DX005 (ip), vehicle: Klucel (hydroxypropylcellulose) (HPC)): 103 % of control

C/C(=N\NC(=S)N1CC2CCC(CC2)C1)c1nccs1
T/C (dose: 12.5 mg/kg/injection, schedule: Q01DX005 (ip), vehicle: saline with Tween-80): 124 % of control
T/C (dose: 50.0 mg/kg/injection, schedule: Q01DX005 (ip), vehicle: saline with Tween-80): 154 % of control

CCCCCCCN(CCCCCCC)CC(O)c1cc2ccc(Cl)cc2nc1-c1ccc(Cl)cc1 (stereo unspecified)
T/C (dose: 100.0 mg/kg/injection, schedule: Q01DX001 (ip), vehicle: saline sonified): 90 % of control
T/C (dose: 200.0 mg/kg/injection, schedule: Q01DX001 (ip), vehicle: saline sonified): 90 % of control
T/C (dose: 400.0 mg/kg/injection, schedule: Q01DX001 (ip), vehicle: saline sonified): 104 % of control

NC(N)=NC(N)=Nc1ccc(Cl)c(Cl)c1
T/C [1]: 103 % of control
T/C [2]: 103 % of control and 106 % of control
T/C [3]: 112 % of control and 93 % of control
T/C (dose: 100.0 mg/kg/injection, schedule: Q01DX009 (ip), vehicle: saline with Tween-80): 88 % of control
T/C (dose: 100.0 mg/kg/injection, schedule: Q04DX003 (ip), vehicle: saline): 109 % of control

COC1CCC(/C=C(\C#N)C2CCC(OC)CC2)CC1 (stereo unspecified)
T/C (dose: 25.0 mg/kg/injection, schedule: Q01DX009 (ip), vehicle: Klucel (hydroxypropylcellulose) (HPC)): 107 % of control
T/C (dose: 50.0 mg/kg/injection, schedule: Q01DX009 (ip), vehicle: Klucel (hydroxypropylcellulose) (HPC)): 100 % of control
T/C (dose: 100.0 mg/kg/injection, schedule: Q01DX009 (ip), vehicle: Klucel (hydroxypropylcellulose) (HPC)): 96 % of control
T/C (dose: 200.0 mg/kg/injection, schedule: Q01DX009 (ip), vehicle: Klucel (hydroxypropylcellulose) (HPC)): 92 % of control

Cc1ccc(N2CCN(CC(O)COc3cc4ccccc4c4c3CCCC4)CC2)cc1C (stereo unspecified)
T/C (dose: 100.0 mg/kg/injection, schedule: Q04DX003 (ip), vehicle: Klucel (hydroxypropylcellulose) (HPC)): 95 % of control
T/C (dose: 200.0 mg/kg/injection, schedule: Q04DX003 (ip), vehicle: Klucel (hydroxypropylcellulose) (HPC)): 104 % of control
T/C (dose: 400.0 mg/kg/injection, schedule: Q04DX003 (ip), vehicle: Klucel (hydroxypropylcellulose) (HPC)): 108 % of control

CCOc1c(N=Nc2ccc(OC)cc2)c(C)nn1C(=S)SC
T/C (dose: 60.0 mg/kg/injection, schedule: Q01DX005 (ip), vehicle: Klucel + Tween-80): 92 % of control
T/C (dose: 120.0 mg/kg/injection, schedule: Q01DX005 (ip), vehicle: Klucel + Tween-80): 92 % of control
T/C (dose: 240.0 mg/kg/injection, schedule: Q01DX005 (ip), vehicle: Klucel + Tween-80): 89 % of control

From PubChem BioAssay AID330 (DTP/NCI, 2004)
